Common to all, as to type: cell-based
Assay [1] deals with RSV strain A2. Briefly: microbe, parasite or virus in culture. The settings on record: human respiratory syncytial virus, read-out: RSV HEp-2 EC50. In outline: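 Cytopathic-effect protection assay: HEp-2 cells (50,000/mL) infected with pre-titered RSV A2 onto 3-fold serial compound dilutions, incubated 4 days at 37° C. Cell viability read by CellTiter-Glo luminescence; percent inhibition derived against 0% and 100% virus-inhibition controls.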

Assay [2] concerns RSV A2. Briefly: RSV NHBE EC50 (RSV A2 antiviral assay in NHBE cells). The settings on record: human respiratory syncytial virus, NHBE, read-out: RSV NHBE EC50. In outline:
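Antiviral activity against RSV A2 was determined in NHBE cells used within 6 passages, with cell viability quantified by CellTiter-Glo after a 4-day infection.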

Assay [3] has as its system HRV16. Briefly: HRV16 HeLa EC50 (cytopathic effect in H1-HeLa cells). The settings on record: read-out: HRV16 HeLa EC50. In outline:
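H1-HeLa cells seeded one day before, given 3-fold serial compound dilutions in triplicate just prior to infection with pre-titrated virus. Incubated 96 h at 33 °C/5% CO2; protection from cytopathic effect read as viability by CellTiter-Glo luminescence, normalised to infected untreated (0%) and uninfected (100%) controls.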
For orientation: Cytopathic effects are the visible damage that an infection or toxin causes in cultured cells.

Assay [4] has as its system DENV2 replicon. Briefly: DENV-2 Huh-7 Rep EC50 (replicon luminescence). The settings on record: Dengue virus, DENV2, Huh-7, 48 h. In a few lines:
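Huh-7 cells carrying a DENV2 replicon, 5,000 cells/well, were incubated with dosed compounds for 48 h at 37° C. EnduRen live-cell substrate was added 1.5 h before luminescence reading. EC50 came from dose-response against DMSO-only wells.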
For orientation: In antiviral work, replicon cells carry a viral genome segment that copies itself.

[5] abbreviates: HEp-2, 96 h, Table 3, HEp-2 cells, RSV A2, 4 days.
[6] abbreviates: 96 h, Table 3, NHBE cells, RSV A2, 4 days.
Setting [7] is: 96 h, Table 3, H1-HeLa cells, 96 h.
[8] abbreviates: read-out: DENV-2 REP Huh7 EC50, Table 3, Huh-7 DENV2 replicon cells, 48 hours.

Structures are written as SMILES. Where two headings read alike, the source gives them in different places. Some results are limits rather than exact numbers.

Consider `CC(=O)O[C@H]1[C@H](c2ccc3c(N)ncnn23)O[C@](C#N)(COP(=O)(N[C@@H](C)C(=O)OCc2ccccc2)Oc2ccccc2)[C@H]1OC(C)=O` (stereo partly drawn) [Example 126, (2R,3S,4S,5S)-5-(4-aminopyrrolo[2,1-f][1,2,4]triazin-7-yl)-2-((((((S)-1-(benzyloxy)-1-oxopropan-2-yl)amino)(phenoxy)phosphoryl)oxy)methyl)-2-cyanotetrahydrofuran-3,4-diyl diacetate], for which the EC50 (as a rule, the concentration that produces a half-maximal response) was 121 nM in assay [1] (setting [5]), 45 nM in assay [2] (setting [6]), 514 nM in assay [3] (setting [7]) and 16000 nM in assay [4] (read-out: DENV-2 REP Huh7 EC50).

`COC(=O)[C@H](C)NP(=O)(N[C@@H](C)C(=O)OC)OC[C@@]1(C#N)O[C@@H](c2ccc3c(N)ncnn23)[C@H](OC(C)=O)[C@@H]1OC(C)=O` [Example 127]: the EC50 in assay [1] (setting [5]) was 8060 nM; in assay [2] (setting [6]), 3360 nM; in assay [3] (setting [7]) it was above 50000 nM; in assay [4] (setting [8]), above 50000 nM.

Regarding `COC(=O)[C@H](C)NP(=O)(N[C@@H](C)C(=O)OC)OC[C@@]1(C#N)O[C@@H](c2ccc3c(NC(C)=O)ncnn23)[C@H](OC(C)=O)[C@@H]1OC(C)=O` [Example 128], the half-maximal effective concentration (EC50) is 18800 nM in assay [1] (setting [5]), above 4140 nM in assay [2] (setting [6]), above 50000 nM in assay [3] (setting [7]) and above 50000 nM in assay [4] (setting [8]).

`COC(=O)[C@H](C)NP(=O)(OC[C@@]1(C#N)O[C@@H](c2ccc3c(N)ncnn23)[C@H](OC(C)=O)[C@@H]1OC(C)=O)Oc1ccccc1` (stereo partly drawn) [Example 129, (2R,3S,4S,5S)-5-(4-aminopyrrolo[2,1-f][1,2,4]triazin-7-yl)-2-cyano-2-((((((S)-1-methoxy-1-oxopropan-2-yl)amino)(phenoxy)phosphoryl)oxy)methyl)tetrahydrofuran-3,4-diyl diacetate]: the EC50 was 154 nM in assay [1] (setting [5]), 77 nM in assay [2] (setting [6]), 1110 nM in assay [3] (setting [7]) and 15500 nM in assay [4] (read-out: DENV-2 REP Huh7 EC50).

Consider `COC(=O)[C@H](C)NP(=O)(OC[C@@]1(C#N)O[C@@H](c2ccc3c(NC(C)=O)ncnn23)[C@H](OC(C)=O)[C@@H]1OC(C)=O)Oc1ccccc1` (stereo partly drawn) [Example 132, (2R,3S,4S,5S)-5-(4-acetamidopyrrolo[2,1-f][1,2,4]triazin-7-yl)-2-cyano-2-((((((S)-1-methoxy-1-oxopropan-2-yl)amino)(phenoxy)phosphoryl)oxy)methyl) tetrahydrofuran-3,4-diyl diacetate], for which the concentration giving a half-maximal response (EC50) in assay [1] (setting [5]) stood at 434 nM; in assay [2] (setting [6]), 145 nM; in assay [3] (setting [7]) it was 3480 nM; in assay [4] (read-out: DENV-2 REP Huh7 EC50) it was 29400 nM.

Consider `CC(=O)O[C@H]1[C@H](c2ccc3c(N)ncnn23)O[C@](C#N)(COP(=O)(N[C@@H](C)C(=O)OC(C)C)N[C@@H](C)C(=O)OC(C)C)[C@H]1OC(C)=O` [Example 133, ((2R,3S,4R,5S)-5-(4-aminopyrrolo[2,1-f][1,2,4]triazin-7-yl)-2-cyano-3,4-diacetatetetrahydrofuran-2-yl)methyl bis-isopropyl L-alaninate phosphate], for which the EC50 in assay [1] (setting [5]) is 18100 nM; in assay [2] (setting [6]) it was above 4070 nM; in assay [3] (setting [7]) it was above 48900 nM; in assay [4] (setting [8]), above 50000 nM.

`CCOC(=O)[C@H](C)NP(=O)(N[C@@H](C)C(=O)OCC)OC[C@@]1(C#N)O[C@@H](c2ccc3c(N)ncnn23)[C@H](OC(C)=O)[C@@H]1OC(C)=O` [Example 134, ((2R,3S,4R,5S)-5-(4-aminopyrrolo[2,1-f][1,2,4]triazin-7-yl)-2-cyano-3,4-diacetatetetrahydrofuran-2-yl)methyl bis-ethyl L-alaninate phosphate]: the EC50 in assay [1] (setting [5]) is 7340 nM; in assay [2] (setting [6]) it was 1590 nM; in assay [3] (setting [7]), above 50000 nM; in assay [4] (setting [8]), above 50000 nM.

`CCC(=O)O[C@H]1[C@H](c2ccc3c(N)ncnn23)O[C@](C#N)(COP(=O)(N[C@@H](C)C(=O)OC2CCN(CC)CC2(F)F)Oc2ccccc2)[C@H]1OC(=O)CC` (stereo partly drawn) [Example 135, (2R,3S,4S,5S)-5-(4-Aminopyrrolo[2,1-f][1,2,4]triazin-7-yl)-2-cyano-2-((((((2S)-1-((1-ethyl-3,3-difluoropiperidin-4-yl)oxy)-1-oxopropan-2-yl)amino)(phenoxy)phosphoryl)oxy)methyl)tetrahydrofuran-3,4-diyl dipropionate]: the EC50 came to 738 nM in assay [1] (setting [5]), 33 nM in assay [2] (setting [6]), 1080 nM in assay [3] (setting [7]) and 30600 nM in assay [4] (read-out: DENV-2 REP Huh7 EC50).

In the case of `CC(C)C(=O)O[C@H]1[C@H](c2ccc3c(N)ncnn23)O[C@](C#N)(COP(=O)(N[C@@H](C)C(=O)O[C@H]2CC[C@H](N)CC2)Oc2ccccc2)[C@H]1OC(=O)C(C)C` (stereo partly drawn) [Example 136, (2R,3S,4S,5S)-2-((((((S)-1-(((1r,4S)-4-aminocyclohexyl)oxy)-1-oxopropan-2-yl)amino)(phenoxy)phosphoryl)oxy)methyl)-5-(4-aminopyrrolo[2,1-f][1,2,4]triazin-7-yl)-2-cyanotetrahydrofuran-3,4-diyl bis(2-methylpropanoate)], the EC50 came out at 2950 nM in assay [1] (setting [5]), 244 nM in assay [2] (setting [6]), 15000 nM in assay [3] (setting [7]) and 38200 nM in assay [4] (read-out: DENV-2 REP Huh7 EC50).

Take `CCOC(=O)[C@H](C)NP(=O)(N[C@@H](C)C(=O)OCC)OC[C@@]1(C#N)O[C@@H](c2ccc3c(N)ncnn23)[C@H](OC(=O)C(C)C)[C@@H]1OC(=O)C(C)C` [Example 137, ((2R,3S,4R,5S)-5-(4-aminopyrrolo[2,1-f][1,2,4]triazin-7-yl)-2-cyano-3,4-diisobutylatetetrahydrofuran-2-yl)methyl bis-ethyl L-alaninate phosphate]: the 50% effective concentration (EC50) in assay [1] (setting [5]) stood at 467 nM; in assay [1] (HEp-2, Table 5 comparative activity, 2',3'-OH vs -OC(O)iPr), 467 nM; in assay [2] (setting [6]), 65 nM; in assay [2] (Table 5 comparative activity, 2',3'-OH vs -OC(O)iPr), 65 nM; in assay [3] (setting [7]), 1040 nM; in assay [3] (HeLa, Table 5 comparative activity, 2',3'-OH vs -OC(O)iPr), 1040 nM. For the same compound, in assay [4] (setting [8]), the EC50 was 38400 nM.

Regarding `COC(=O)[C@H](C)NP(=O)(OC[C@@]1(C#N)O[C@@H](c2ccc3c(N)ncnn23)[C@H](OC(=O)C(C)C)[C@@H]1OC(=O)C(C)C)Oc1ccccc1` (stereo partly drawn) [Example 138, (2R,3S,4S,5S)-5-(4-aminopyrrolo[2,1-f][1,2,4]triazin-7-yl)-2-cyano-2-((((((S)-1-methoxy-1-oxopropan-2-yl)amino)(phenoxy)phosphoryl)oxy)methyl)tetrahydrofuran-3,4-diyl bis(2-methylpropanoate)], the EC50 was determined as 63 nM in assay [1] (setting [5]), 17 nM in assay [2] (setting [6]), 101 nM in assay [3] (setting [7]) and 5200 nM in assay [4] (read-out: DENV-2 REP Huh7 EC50).

Consider `CCC(=O)O[C@H]1[C@H](c2ccc3c(N)ncnn23)O[C@](C#N)(COP(=O)(N[C@@H](C)C(=O)OC)Oc2ccccc2)[C@H]1OC(=O)CC` (stereo partly drawn) [Example 141, (2R,3S,4S,5S)-5-(4-aminopyrrolo[2,1-f][1,2,4]triazin-7-yl)-2-cyano-2-((((((S)-1-methoxy-1-oxopropan-2-yl)amino)(phenoxy)phosphoryl)oxy)methyl)tetrahydrofuran-3,4-diyl dipropionate], for which the EC50 in assay [1] (setting [5]) was determined as 80 nM; in assay [2] (setting [6]), 23 nM; in assay [3] (setting [7]), 253 nM; in assay [4] (read-out: DENV-2 REP Huh7 EC50) it was 7490 nM.

Consider `COC(=O)[C@H](C)NP(=O)(N[C@@H](C)C(=O)OC)OC[C@@]1(C#N)O[C@@H](c2ccc3c(N)ncnn23)[C@H](OC(=O)C(C)C)[C@@H]1OC(=O)C(C)C` [Example 149, ((2R,3S,4R,5S)-5-(4-aminopyrrolo[2,1-f][1,2,4]triazin-7-yl)-2-cyano-3,4-diisobutylatetetrahydrofuran-2-yl)methyl bis-methyl L-alaninate phosphate], for which the concentration giving a half-maximal response (EC50) was 1150 nM in assay [1] (setting [5]), 84 nM in assay [2] (setting [6]), 3190 nM in assay [3] (setting [7]) and above 35800 nM in assay [4] (setting [8]).

On to `COC(=O)[C@H](C)NP(=O)(N[C@@H](C)C(=O)OC)OC[C@@]1(C#N)O[C@@H](c2ccc3c(NC(=O)C(C)C)ncnn23)[C@H](OC(=O)C(C)C)[C@@H]1OC(=O)C(C)C` [Example 150, ((2R,3S,4R,5S)-5-(4-isobutyramidopyrrolo[2,1-f][1,2,4]triazin-7-yl)-2-cyano-3,4-diisobutylatetetrahydrofuran-2-yl)methyl bis-methyl L-alaninate phosphate], for which the concentration for a half-maximal effect (EC50) was 1400 nM in assay [1] (setting [5]), 70 nM in assay [2] (setting [6]), 3480 nM in assay [3] (setting [7]) and above 50000 nM in assay [4] (setting [8]).

`COCC(=O)O[C@H]1[C@H](c2ccc3c(N)ncnn23)O[C@](C#N)(CO[P@@](=O)(N[C@@H](C)C(=O)OC(C)C)Oc2ccccc2)[C@H]1OC(=O)COC` [Example 151, (2R,3S,4S,5S)-5-(4-aminopyrrolo[2,1-f][1,2,4]triazin-7-yl)-2-cyano-2-((((S)-(((S)-1-isopropoxy-1-oxopropan-2-yl)amino)(phenoxy)phosphoryl)oxy)methyl) tetrahydrofuran-3,4-diyl bis(2-methoxyacetate)]: the EC50 in assay [1] (setting [5]) is 226 nM; in assay [2] (setting [6]) it was 751 nM; in assay [3] (setting [7]) it was 946 nM; in assay [4] (read-out: DENV-2 REP Huh7 EC50) it was 19500 nM.
